Experimental data published in patent publication US20250354117A1, “METHODS OF GENERATING NATURAL KILLER CELLS FROM PLURIPOTENT STEM CELLS AND COMPOSITIONS THEREOF” (THE CHILDREN'S MEDICAL CENTER CORPORATION, priority 2022, published 2025).
“Also recorded” adds a separate entry of the source.

Key:
[1] = test system: CD34+ umbilical cord blood HSPCs; test: UNC0642 treatment during T cell differentiation, flow cytometry; assay type: cell-based, human; conditions: continuous treatment 10, 50, 100, 500 nM; 28 days of differentiation; vs DMSO control
Description: Error bars represent the standard deviation across n=3 independent differentiations per dose of UNC0642. *=p<0.05 compared to the DMSO control using a two-tailed Wilcoxon sum-rank test.
Error bars represent standard deviation. N=3 independent differentiation replicates per dose of UNC0642.
CD34+ umbilical cord blood cells (AllCells) were thawed from liquid nitrogen storage and T cell differentiation was immediately initiated with a StemSpan T cell Generation Kit (Stem Cell Technologies, 09940), as described above. Cells were treated with UNC0642 (Cayman Chemical, 14604) over the entire duration of the differentiation and fresh compound was supplemented every 3-4 days to the media. A range of doses were tested (10 nM, 50 nM, 100 nM, and 500 nM) alongside a 0.5% DMSO vehicle control with n=3 replicate differentiations per condition. Cells were collected after 28 days of differentiation to assess NK and T cell populations by flow cytometry.

[2] = test system: FKBP12^F36V tagged TRIM28; test: Western-blot for TRIM28 on dTAG knockin iPS clones; assay type: cell-based, human; conditions: 500 nM, 24 hours, four iPS clones, vs DMSO
Description: FIG. 35A-35F examines rapid and selective degradation of endogenous TRIM28 in human iPS cells. […] An mNeon-FKBP12^F36V open reading frame DNA sequence was knocked into the TRIM28 locus (SEQ ID NO: 32) to tag the N-terminus of TRIM28 and thus create an mNeon-FKBP12^F36V-TRIM28 fusion protein. The knockin was achieved through CRISPR/Cas9-mediated HDR (gRNA, SEQ ID: 31) where the knockin cassette was delivered to cells in an rAAV6 vector. FIG. 35B examines bulk knockin efficiency was assessed with flow cytometry for mNeon five days after simultaneous CRISPR/Cas9 RNP nucleofection and rAAV6 infection of iPS cells (MOI: 50,000 viral genomes/cells). […] The wild-type, unedited locus results in an amplicon of 1,204 bp and the knockin locus generates an amplicon of 2,371 bp. (*) denotes biallelic knockin clones. FIG. 35D analyzes microscopy for DAPI and mNeon on a biallelic knockin iPS clone to visualize nuclear localization of mNeon signal, consistent with the known nuclear localization of endogenous TRIM28 proteins. FIG. 35E examines titration of degrader molecules (dTAG-13 and dTAG^V-1) on a biallelic knockin iPS clone, assayed by flow cytometry for mNeon as a quantitative proxy for TRIM28 protein expression.

[3] = test system: CD34+ umbilical cord blood HSPCs; test: In vitro T cell differentiation (Notch-based, stroma-free) of CRISPR/Cas9 RNP-edited HSPCs, flow cytometry; parameters: species or system human; conditions: six weeks of in vitro differentiation, Cas9 RNP knockout of EHMT1, n=3; for CD56+CD3− natural killer (NK) cells (fractional abundance within CD45+DAPI− population): AAVS1-targeting gRNA control: 1.2±0.45%; for CD56−CD3+ T cells (fractional abundance within CD45+DAPI− population): AAVS1-targeting gRNA control: 38.7±12.5%
Description: Genetic knockouts of select genes were generated in primary hematopoietic stem and progenitor cells (HSPCs) via nucleofection of CRISPR/Cas9 ribonucleoproteins (RNPs). Two independent knockouts were generated for each gene using separate gRNAs and knockouts were replicated across two different donor pools of human umbilical cord blood. First, CD34+ cord blood cells (AllCells) were thawed via dropwise addition of RPMI 1640+10% FBS. Cells were centrifuged at 200 g for 8 minutes and subsequently washed with FACS buffer (PBS+2% FBS). Cells were cultured for 48 hours prior to nucleofection at a density of 250,000 cells/mL in SFEM II™ media (StemCell Technologies) supplemented with 100 ng/mL SCF, TPO, FLT3L, and IL-6 (Peprotech) within a 5% O2, 5% CO2, 37° C. incubator. Next, the top two protospacer sequences for each desired gene were selected from the Brunello genome-wide knockout library (Broad Institute) based on the Rule Set 2 score. A control gRNA targeting the AAVS1 locus was designed in Benchling™. All gRNA sequences were synthesized by IDT as an Alt-R CRISPR/Cas9 sgRNA. RNPs were complexed by incubating 105 pmol of Cas9 protein (IDT) with 125 pmol of sgRNA in a 5 uL total volume for 10 minutes at room temperature. CD34+ cord blood HSPCs were washed with FACS buffer and 125,000 cells were resuspended in 20 μL of P3 Primary Cell Nucleofection Solution (Lonza) per nucleofection. RNPs were nucleofected into HSPCs with 3.85 uM electroporation enhancer (IDT) using a 16-reaction nucleovette on a Lonza 4D-Nucleofector (program DZ-100). Cells were cultured for 36-48 hours at 5% O2, 5% CO2 in 96-well U-bottom plates (Corning) then subsequently harvested for genomic DNA extraction and initiation of in vitro differentiation assays.
Following 36-48 hours post-nucleofection of Cas9 RNPs, 5,000 cord blood HSPCs were differentiated to T cell lineages using the StemSpan™ T cell Generation Kit (Stem Cell Technologies) per the manufacturer's instructions with n=3 replicate differentiations per gRNA. Total viable cell counts were performed on Day 14, 28 and 42 of differentiation. T cell development was assessed by flow cytometry on days 14 and 42 of differentiation to assess lymphoid progenitors (CD45, CD5 and CD7) and mature T cells (CD45, CD4, CD8, CD3, CD56, CD5 and CD7), respectively. Cells were stained with propidium iodide as a viability marker and the following antibodies for flow cytometry: CD45 APC-Cy7 (557833, BD Biosciences), CD4 PE-Cy5 (IM2636U, Beckman Coulter Immunotech), CD8-BV421 (RPA-T8, BD Horizon), CD5-BV510 (UCHT2, BD Biosciences), CD3-PE-Cy7 (UCHT1, BD Pharmigen), CD7-PE (555361, BD Pharmigen), CD56 FITC (BD Pharmigen). […]

| Compound | proportion of CD56+CD3− NK cells and CD56−CD3+ T cells [1] | TRIM28 protein degradation [2] | CD56+CD3− natural killer (NK) cells (fractional abundance within CD45+DAPI− population) [3] [%] | CD56−CD3+ T cells (fractional abundance within CD45+DAPI− population) [3] [%] |
| --- | --- | --- | --- | --- |
| COc1cc2c(NC3CCN(C(C)C)CC3)nc(N3CCC(F)(F)CC3)nc2cc1OCCCN1CCCC1 [UNC0642] | dose-dependent acquisition of NK cells; also recorded: dose-dependent phenocopy of the EHMT1 CRISPR/Cas9 knockout | – | – | – |
| CC[C@H](C(=O)N1CCCC[C@H]1C(=O)O[C@H](CCc1ccc(OC)c(OC)c1)c1ccccc1OCC(=O)NCCCCCCC(=O)N[C@H](C(=O)N1C[C@H](O)C[C@H]1C(=O)N[C@@H](C)c1ccc(-c2scnc2C)cc1)C(C)(C)C)c1cc(OC)c(OC)c(OC)c1 [dTAG^V-1] | – | near-complete degradation | – | – |
| EHMT1 gRNA02: SEQ ID NO: 6, TTCGGCTGCTTCCATCAACG; Alt-R CRISPR/Cas9 sgRNA delivered as Cas9 RNP (guide UUCGGCUGCUUCCAUCAACG; IDT Alt-R synthetic sgRNA, modifications not given here) | – | – | 58.7±4.9 | 6.6±0.69 |
| EHMT1 gRNA01: SEQ ID NO: 5, GGGCCGGTGCACAAACAGCG; Alt-R CRISPR/Cas9 sgRNA delivered as Cas9 RNP (guide GGGCCGGUGCACAAACAGCG; IDT Alt-R synthetic sgRNA, modifications not given here) | – | – | 35.4±5.7 | 13.9±1.8 |
